Values after ≈ are worked out from the molar mass of the structure shown. Active and inactive are the calls of the source. The calls are words filed in the database; no cut-off is given here.
Key:
[1] = test system: Staphylococcus aureus; experiment: Induction of inner membrane permeability in Staphylococcus aureus assessed as increase in fluorescence intensity at 16 ug/ml measured for 20 mins by PI dye based analysis; format: functional, organism-based; settings: dose 16.0 µg/ml
[2] = test system: Enterococcus faecalis; experiment: Antimicrobial activity against Enterococcus faecalis incubated for 16 to 18 hrs by broth dilution assay; format: functional; settings: time 16-18 hrs
[3] = test system: Stenotrophomonas maltophilia; experiment: Antimicrobial activity against Stenotrophomonas maltophilia incubated for 16 to 18 hrs by broth dilution assay; format: functional; settings: time 16-18 hrs
[4] = test system: Staphylococcus aureus; experiment: Induction of cytoplasmic membrane depolarization in Staphylococcus aureus assessed as increase in fluorescence intensity at 16 ug/ml measured for 20 mins by DiSC3(5) dye based analysis; format: functional, organism-based; settings: dose 16.0 µg/ml
[5] = test system: Staphylococcus aureus; experiment: Antimicrobial activity against Staphylococcus aureus incubated for 16 to 18 hrs by broth dilution assay; format: functional; settings: time 16-18 hrs
[6] = test system: Escherichia coli; experiment: Antimicrobial activity against Escherichia coli incubated for 16 to 18 hrs by broth dilution assay; format: functional; settings: time 16-18 hrs
[7] = Hemolytic activity in sheep red blood cells incubated for 1 hr; format: toxicity, cell-based, Ovis aries, Erythrocyte
[8] = test system: Staphylococcus aureus; experiment: Induction of inner membrane permeability in Staphylococcus aureus assessed as increase in fluorescence intensity measured for 20 mins by PI dye based analysis; format: functional, organism-based
[9] = test system: Staphylococcus aureus; experiment: Induction of cytoplasmic membrane depolarization in Staphylococcus aureus assessed as increase in fluorescence intensity measured for 20 mins by DiSC3(5) dye based analysis; format: functional, organism-based
[10] = test system: Staphylococcus aureus; experiment: Induction of cytoplasmic membrane depolarization in Staphylococcus aureus assessed as increase in fluorescence intensity at 32 ug/ml measured for 20 mins by DiSC3(5) dye based analysis; format: functional, organism-based; settings: dose 32.0 µg/ml
[11] = test system: Staphylococcus aureus; experiment: Induction of inner membrane permeability in Staphylococcus aureus assessed as increase in fluorescence intensity at 32 ug/ml measured for 20 mins by PI dye based analysis; format: functional, organism-based; settings: dose 32.0 µg/ml
[12] = test system: Staphylococcus aureus; experiment: Antibacterial activity against rifampicin-induced persistant Staphylococcus aureus assessed as decrease in CFU at 100 times MIC measured for 10 hrs; format: functional, organism-based

| SMILES | Activity [1] | MIC [2] [µg/mL] | MIC [3] [µg/mL] | Activity [4] | MIC [5] [µg/mL] | MIC [6] [µg/mL] | HC50 at 1 h [7] [µg/mL] | Activity [8] | Activity [9] | Activity [10] | Activity [11] | Activity [12] |
| --- | --- | --- | --- | --- | --- | --- | --- | --- | --- | --- | --- | --- |
| CCCCCCCCCCNC(=O)c1cc[n+](CC2=C(C(=O)O)N3C(=O)[C@@H](NC(=O)Cc4ccccc4)[C@H]3SC2)cc1.[I-] | inactive | 16 | > 128 | inactive | 0.063 | > 128 | 321 |  |  |  |  |  |
| CCCCCCCC[n+]1ccc(C(=O)N[C@@H]2C(=O)N3C(C(=O)OC(c4ccccc4)c4ccccc4)=C(COC(C)=O)CS[C@H]23)cc1.[I-] |  | 8 | 32 |  | 16 | 64 |  | Active | Active |  |  |  |
| CCCCCCCCCCNC(=O)c1ccc[n+](CC2=C(C(=O)O)N3C(=O)[C@@H](NC(=O)Cc4ccccc4)[C@H]3SC2)c1.[I-] | inactive | 16 | > 128 | inactive | 0.063 | > 128 | 318 |  |  |  |  |  |
| CCCCCC[n+]1ccc(-c2cc[n+](CC3=C(C(=O)[O-])N4C(=O)[C@@H](NC(=O)Cc5ccccc5)[C@H]4SC3)cc2)cc1.O=C([O-])C(F)(F)F |  | 16 | 16 |  | 0.125 | 16 | > 1280 |  |  |  |  |  |
| CCCCCCCCCCCCNC(=O)c1ccc[n+](CC2=C(C(=O)O)N3C(=O)[C@@H](NC(=O)Cc4ccccc4)[C@H]3SC2)c1.[I-] | inactive | 16 | > 128 | inactive | 0.5 | > 128 | 291 |  |  |  |  |  |
| CCCCCCCCCCCCCCCC[n+]1ccc(-c2cc[n+](CC3=C(C(=O)OCc4ccc(OC)cc4)N4C(=O)[C@@H](NC(=O)Cc5ccccc5)[C@H]4SC3)cc2)cc1.[I-].[I-] |  | 8 | 128 |  | 4 | 128 | 109 |  |  | Active | Active |  |
| CCCCNC(=O)c1cc[n+](CC2=C(C(=O)O)N3C(=O)[C@@H](NC(=O)Cc4ccccc4)[C@H]3SC2)cc1.[I-] |  | 32 | 64 |  | 0.125 | 32 | > 1280 |  |  |  |  |  |
| C[C@@H](O)[C@H]1C(=O)N2C(C(=O)O)=C(S[C@@H]3CN[C@H](C(=O)N(C)C)C3)[C@H](C)[C@H]12 [MEROPENEM] |  |  | 0.031 (≈ 0.0808 µM) |  |  | 0.031 (≈ 0.0808 µM) | > 1280 |  |  |  |  |  |
| CCCCCCCCNC(=O)c1cc[n+](CC2=C(C(=O)O)N3C(=O)[C@@H](NC(=O)Cc4ccccc4)[C@H]3SC2)cc1.[I-] | inactive | 16 | > 128 | inactive | 0.063 | > 128 | > 1280 |  |  |  |  |  |
| CCCCCCCCCCNC(=O)c1ccc[n+](CC2=C(C(=O)OCc3ccc(OC)cc3)N3C(=O)[C@@H](NC(=O)Cc4ccccc4)[C@H]3SC2)c1.[I-] | Active |  |  | Active | 0.25 |  |  |  |  |  |  |  |
| CCCCCCCC[n+]1ccc(C(=O)N[C@@H]2C(=O)N3C(C(=O)O)=C(COC(C)=O)CS[C@H]23)cc1.[I-] |  | > 128 | > 128 |  | > 128 | > 128 |  | inactive | inactive |  |  |  |
| CCCCCCCCNC(=O)c1ccc[n+](CC2=C(C(=O)OCc3ccc(OC)cc3)N3C(=O)[C@@H](NC(=O)Cc4ccccc4)[C@H]3SC2)c1.[I-] | Active |  |  | Active | 0.25 |  |  |  |  |  |  |  |
| CCCCCCCCCC[n+]1ccc(C(=O)N[C@@H]2C(=O)N3C(C(=O)OC(c4ccccc4)c4ccccc4)=C(COC(C)=O)CS[C@H]23)cc1.[I-] |  | 2 | 32 |  | 2 | 32 |  | Active | Active |  |  |  |
| CCCCCCCC[n+]1ccc(-c2cc[n+](CC3=C(C(=O)OCc4ccc(OC)cc4)N4C(=O)[C@@H](NC(=O)Cc5ccccc5)[C@H]4SC3)cc2)cc1.[I-].[I-] |  | 32 | 128 |  | 0.5 | 128 | > 1280 |  |  |  |  |  |
| CCCCNC(=O)c1ccc[n+](CC2=C(C(=O)O)N3C(=O)[C@@H](NC(=O)Cc4ccccc4)[C@H]3SC2)c1.[I-] |  | 32 | 128 |  | 0.125 | 64 | > 1280 |  |  |  |  |  |
| CCCCCCCCCCCCCCNC(=O)c1ccc[n+](CC2=C(C(=O)O)N3C(=O)[C@@H](NC(=O)Cc4ccccc4)[C@H]3SC2)c1.[I-] | inactive | 16 | > 128 | inactive | 2 | > 128 | 155 |  |  |  |  |  |

| SMILES | Activity [1] | MIC [2] [µg/mL] | MIC [3] [µg/mL] | Activity [4] | MIC [5] [µg/mL] | MIC [6] [µg/mL] | HC50 at 1 h [7] [µg/mL] | Activity [8] | Activity [9] | Activity [10] | Activity [11] | Activity [12] |
| --- | --- | --- | --- | --- | --- | --- | --- | --- | --- | --- | --- | --- |
| CCCCCCCCCC[n+]1ccc(-c2cc[n+](CC3=C(C(=O)OCc4ccc(OC)cc4)N4C(=O)[C@@H](NC(=O)Cc5ccccc5)[C@H]4SC3)cc2)cc1.[I-].[I-] |  | 16 | 128 |  | 0.5 | 128 | > 1280 |  |  | Active | Active |  |
| CCCCCC[n+]1ccc(C(=O)N[C@@H]2C(=O)N3C(C(=O)OC(c4ccccc4)c4ccccc4)=C(COC(C)=O)CS[C@H]23)cc1.[I-] |  | 128 | > 128 |  | 64 | > 128 |  | Active | Active |  |  |  |
| CCCCCCCCCCCC[n+]1ccc(-c2cc[n+](CC3=C(C(=O)OCc4ccc(OC)cc4)N4C(=O)[C@@H](NC(=O)Cc5ccccc5)[C@H]4SC3)cc2)cc1.[I-].[I-] |  | 4 | 32 |  | 1 | 32 | 273 |  |  | Active | Active |  |
| CCCCCCCC[n+]1ccc(SCC2=C(C(=O)OCc3ccc(OC)cc3)N3C(=O)[C@@H](NC(=O)Cc4ccccc4)[C@H]3SC2)cc1.O=C([O-])C(F)(F)F |  | 8 | 128 |  | 0.063 | 64 |  | Active | Active |  |  |  |
| CCCCCCNC(=O)c1ccc[n+](CC2=C(C(=O)O)N3C(=O)[C@@H](NC(=O)Cc4ccccc4)[C@H]3SC2)c1.[I-] |  | 16 | 64 |  | 0.125 | 64 | > 1280 |  |  |  |  |  |
| CCCCCC[n+]1ccc(-c2cc[n+](CC3=C(C(=O)OCc4ccc(OC)cc4)N4C(=O)[C@@H](NC(=O)Cc5ccccc5)[C@H]4SC3)cc2)cc1.[I-].[I-] |  | 64 | 64 |  | 0.5 | 64 | > 1280 |  |  |  |  |  |
| CCCCCCCCNC(=O)c1ccc[n+](CC2=C(C(=O)O)N3C(=O)[C@@H](NC(=O)Cc4ccccc4)[C@H]3SC2)c1.[I-] | inactive | 8 | > 128 | inactive | 0.031 | > 128 | > 1280 |  |  |  |  |  |
| CCCCCCCC[n+]1ccc(-c2cc[n+](CC3=C(C(=O)[O-])N4C(=O)[C@@H](NC(=O)Cc5ccccc5)[C@H]4SC3)cc2)cc1.O=C([O-])C(F)(F)F |  | 16 | 64 |  | 0.125 | 64 | > 1280 |  |  |  |  |  |
| CCCCCCCCCCCCCCNC(=O)c1cc[n+](CC2=C(C(=O)O)N3C(=O)[C@@H](NC(=O)Cc4ccccc4)[C@H]3SC2)cc1.[I-] | inactive | 16 | > 128 | inactive | 4 | > 128 | 151 |  |  |  |  |  |
| CCCCCCNC(=O)c1cc[n+](CC2=C(C(=O)O)N3C(=O)[C@@H](NC(=O)Cc4ccccc4)[C@H]3SC2)cc1.[I-] |  | 16 | 64 |  | 0.125 | 64 | > 1280 |  |  |  |  |  |
| CCCCCCCCNC(=O)c1cc[n+](CC2=C(C(=O)OCc3ccc(OC)cc3)N3C(=O)[C@@H](NC(=O)Cc4ccccc4)[C@H]3SC2)cc1.[I-] | Active |  |  | Active | 0.25 |  |  |  |  |  |  |  |
| CCCCCCCCCCNC(=O)c1cc[n+](CC2=C(C(=O)OCc3ccc(OC)cc3)N3C(=O)[C@@H](NC(=O)Cc4ccccc4)[C@H]3SC2)cc1.[I-] | Active |  |  | Active | 0.25 |  |  |  |  |  |  |  |
| CCCCCC[n+]1ccc(C(=O)N[C@@H]2C(=O)N3C(C(=O)O)=C(COC(C)=O)CS[C@H]23)cc1.[I-] |  | > 128 | > 128 |  | > 128 | > 128 |  | inactive | inactive |  |  |  |
| CCCCCCCC[n+]1ccc(SCC2=C(C(=O)O)N3C(=O)[C@@H](NC(=O)Cc4ccccc4)[C@H]3SC2)cc1.O=C([O-])C(F)(F)F |  | 4 | 128 |  | 0.063 | 128 |  | inactive | inactive |  |  |  |
| CCCCCCCCCCCCNC(=O)c1cc[n+](CC2=C(C(=O)O)N3C(=O)[C@@H](NC(=O)Cc4ccccc4)[C@H]3SC2)cc1.[I-] | inactive | 8 | > 128 | inactive | 0.25 | > 128 | 254 |  |  |  |  |  |
| CO[C@H]1/C=C/O[C@@]2(C)Oc3c(C)c(O)c4c(O)c(c(/C=N/N5CCN(C)CC5)c(O)c4c3C2=O)NC(=O)/C(C)=C\C=C\[C@H](C)[C@H](O)[C@@H](C)[C@@H](O)[C@@H](C)[C@H](OC(C)=O)[C@@H]1C |  |  |  |  |  |  |  |  |  |  |  | inactive |
